The values that follow come from US20240391870A1 (Arcturus Therapeutics, Inc., priority 2023, published 2024).

Series [1] in a line: Lipid nanoparticle size, PDI and encapsulation. The note with it: Table 3; for Size (nm): lipid nanoparticle; for EE %: lipid nanoparticle encapsulation. The class given is physicochemical. Here is the method:
In the context of nucleic acids, full encapsulation may be determined by performing a membrane-impermeable fluorescent dye exclusion assay, which uses a dye that has enhanced fluorescence when associated with nucleic acid. Encapsulation is determined by adding the dye to a lipid formulation, measuring the resulting fluorescence, and comparing it to the fluorescence observed upon addition of a small amount of nonionic detergent. Detergent-mediated disruption of the lipid layer releases the encapsulated nucleic acid, allowing it to interact with the membrane-impermeable dye. Nucleic acid encapsulation may be calculated as E=(I0−I)/I0, where I and I0 refer to the fluorescence intensities before and after the addition of detergent.

Another series has as its system hEPO. Description: hEPO mRNA expression evaluation (hEPO-LNPs). The note with it: Table 3; 0.3 mg/kg. It counts as in vivo, Balb/c mice.
A short description of series [2]: In vivo biodegradability assay (lipid in liver). The note with it: Table 3; liver tissue, 0.3 mg/kg dose.
Experimental: In vivo biodegradability assay was performed to assess the biodegradability of lipids in the LNP. Briefly, mice were injected with either 0.1 or 0.03 mg/Kg dose and after 24 or 48 hours mice livers were collected. To measure the concentration of lipids in the mouse liver, liver samples were homogenized in appropriate buffer in 1-10 dilution and mixed with the same amount of stabilized plasma. The samples were then mixed with organic solvents spiked with internal standard to precipitate proteins. After centrifugation, supernatant was diluted further with organic solvent before sample analysis by LC-MS. In LC-MS analysis, positive electrospray ionization was used, and multiple reaction monitoring (MRM) parameters were set up to specifically target the lipid analyte and internal standard. Calibration standards were prepared in stabilized plasma and mixed with same amount of homogenization buffer before protein precipitation. Quality control samples with known amounts of lipid was prepared in blank liver homogenate to monitor the precision and accuracy of the assay.
Series [3] can be described thus: Lipid nanoparticle size, PDI and encapsulation. It counts as physicochemical. The note with it: Table 3.
The test system of the next series is factor VII. Kind of series: Factor VII knock down evaluation (LNP with FVII siRNA). It counts as in vivo, Balb/C mice. The note with it: Table 3; 0.03 mg/kg. Summed up:
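Female Balb/C mice, 7–8 weeks old, received FVII siRNA lipid nanoparticles intravenously at 0.03 or 0.01 mg/kg. Plasma was collected 48 h later and FVII protein measured by chromogenic assay at 405 nm against a control plasma calibration curve. Levels are relative to saline-treated controls.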

Series [4] can be described thus: Measured pKa in the indicated formulation.
Experimental: Measured pKa values were determined based on the pH measured in the indicated formulation (i.e., EPO or FVII formulation).

SMILES strings stand for the structures. Where two headings read alike, the source gives them in different places.

As to `CN(C)CCCSC(=O)N(CCCC(=O)OCC(C)(COC(=O)CCC1CCCCC1)COC(=O)CCC1CCCCC1)CCCC(=O)OCC(C)(COC(=O)CCC1CCCCC1)COC(=O)CCC1CCCCC1` [Lipid 53, ((4,4′-((((3-(Dimethylamino)propyl)thio)carbonyl)azanediyl)bis(butanoyl))bis(oxy))bis(methylene))bis(2-methylpropane-2,1,3-triyl)tetrakis(3 cyclohexylpropanoate)], in series [1], the “Size (nm)” value came out at 85.94 nm and the EE % was found to be 93.1%. The “EPO expression in ng/mL @ 0.3 mg/kg” value in the series on hEPO was 15844.04 ng/mL. The “Invivo lipid degradability ng/g of Liver tissue @ 0.3 mg/kg dose” value (“Invivo lipid degradability ng/g” for short) in series [2] is 14200 ng/g. The PDI in series [3] turned out to be 0.076. The “FVII KD % @ 0.03 mg/kg” value in the series with factor VII was 85.45%. The pKa in series [4] was found to be 6.93.
As to `CCCCC(C)(C)CC(=O)OCC(C)(COC(=O)CCC(CCC(=O)OCC(C)(COC(=O)CC(C)(C)CCCC)COC(=O)CC(C)(C)CCCC)OC(=O)CCCN(C)C)COC(=O)CC(C)(C)CCCC` [Lipid 60, bis(3-((3,3-dimethylheptanol)oxy)-2-(((3,3-dimethylheptanol)oxy)methyl)-2-methylpropyl) 4-((4-(dimethylamino)butanoyl)oxy)heptanedioate], in series [1], the “Size (nm)” value is given as 65.95 nm and the EE % was found to be 93.9%. Besides, the “EPO expression in ng/mL @ 0.3 mg/kg” value in the series with hEPO came out at 1631.03 ng/mL. The “Invivo lipid degradability ng/g” value in series [2] stood at 53300 ng/g. The compound also showed a PDI in series [3] of 0.087. In series [4], this compound came in with a pKa of 6.28.
Turning to `CC1CCC(CCC(=O)OCC(C)(COC(=O)CCC2CCC(C)CC2)COC(=O)CCC(CCC(=O)OCC(C)(COC(=O)CCC2CCC(C)CC2)COC(=O)CCC2CCC(C)CC2)OC(=O)CCCN(C)C)CC1` (stereo not shown) [Lipid 51, Bis(2-methyl-3-((3-(4-methylcyclohexyl)propanoyl)oxy)-2-(((3-(4-methylcyclohexyl)propanoyl)oxy)methyl)propyl) 4-((4-(dimethylamino)butanoyl)oxy)heptanedioate], in series [1], the “Size (nm)” value amounted to 65.71 nm and the EE % stood at 90.4%. In addition, the “EPO expression in ng/mL @ 0.3 mg/kg” value with hEPO is given as 868.5 ng/mL. In addition, the “Invivo lipid degradability ng/g” value in series [2] worked out at 36000 ng/g. In series [3], this compound returned a PDI of 0.059. Besides, in the series with factor VII, the “FVII KD % @ 0.03 mg/kg” value is 65.23%. The same compound displayed a pKa in series [4] of 6.53.
With `CCn1cc(CCC(C)C(=O)OCC(COC(=O)C(C)CCc2cn(CC)c3ccccc23)OC(=O)CCCN(CCCC(=O)OC(COC(=O)C(C)CCc2cn(CC)c3ccccc23)COC(=O)C(C)CCc2cn(CC)c3ccccc23)C(=O)SCCCN(C)C)c2ccccc21` (stereo not shown) [Lipid 43, ((4,4′-((((3-(dimethylamino)propyl)thio)carbonyl)azanediyl)bis(butanoyl))bis(oxy))bis(propane-2,1,3-triyl)tetrakis(4-(1-ethyl-1H-indol-3-yl)-2-methylbutanoate)], in series [1], the “Size (nm)” value is on record as 92.35 nm and the EE % was 90%. The “EPO expression in ng/mL @ 0.3 mg/kg” value in the series with hEPO was 14.3 ng/mL. Moreover, the “Invivo lipid degradability ng/g” value in series [2] is recorded as 1970 ± 379 ng/g. Besides, the PDI in series [3] is on record as 0.05. Besides, in the series on factor VII, the “FVII KD % @ 0.03 mg/kg” value is 15.24%. Further, the pKa in series [4] (Table 3, formulation not indicated) is reported as 6.33.
For `CC1CCC(CCC(=O)OCC(C)(COC(=O)CCC2CCC(C)CC2)COC(=O)CCN(CCC(=O)OCC(C)(COC(=O)CCC2CCC(C)CC2)COC(=O)CCC2CCC(C)CC2)C(=O)OCCCN(C)C)CC1` (stereo not shown) [Lipid 46], in series [1], the “Size (nm)” value is 81.62 nm and the EE % amounted to 91.5%. In addition, the “EPO expression in ng/mL @ 0.3 mg/kg” value with hEPO was found to be 958.2 ng/mL. Besides, the PDI in series [3] turned out to be 0.114. The “FVII KD % @ 0.03 mg/kg” value in the series with factor VII is reported as 82.9%. Moreover, the pKa in series [4] was 7.08.
`CN(C)CCCC(=O)OC(CCCC(=O)OC(COC(=O)CCC1CCCCC1)COC(=O)CCC1CCCCC1)CCCC(=O)OC(COC(=O)CCC1CCCCC1)COC(=O)CCC1CCCCC1` [Lipid 57, bis(1,3-bis((3-cyclohexylpropanoyl)oxy)propan-2-yl) 5-((4-(dimethylamino)butanoyl)oxy)nonanedioate]: in series [1], the “Size (nm)” value is given as 78.98 nm and the EE % is reported as 94.3%. Besides, the “EPO expression in ng/mL @ 0.3 mg/kg” value in the series with hEPO was determined as 21737.69 ng/mL. Also, in series [2], the “Invivo lipid degradability ng/g” value is on record as “BLOQ”. In series [3], this compound returned a PDI of 0.065. The pKa in series [4] stood at 6.52.
Take `CN(C)CCCC(=O)OC(CCCC(=O)OC(COC(=O)CCCC1CCCCC1)COC(=O)CCCC1CCCCC1)CCCC(=O)OC(COC(=O)CCCC1CCCCC1)COC(=O)CCCC1CCCCC1`: in series [1], the “Size (nm)” value is recorded as 70.09 nm and the EE % is 93.4%. Also, the “EPO expression in ng/mL @ 0.3 mg/kg” value in the series on hEPO is reported as 19337.84 ng/mL. Further, the “Invivo lipid degradability ng/g” value in series [2] is reported as “BLOQ”. In series [3], this compound had a PDI of 0.081. The compound also gave a pKa in series [4] of 6.49.
Regarding `CN(C)CCCC(=O)OC(CCCC(=O)OCC(COC(=O)CCC1CCCCC1)COC(=O)CCC1CCCCC1)CCCC(=O)OCC(COC(=O)CCC1CCCCC1)COC(=O)CCC1CCCCC1` [Lipid 61, bis(3-((3-cyclohexylpropanoyl)oxy)-2-(((3-cyclohexylpropanoyl)oxy)methyl)propyl)5-((4-(dimethylamino)butanoyl)oxy)nonanedioate], in series [1], the “Size (nm)” value was found to be 70.54 nm and the EE % amounted to 95.3%. In addition, in the series with hEPO, the “EPO expression in ng/mL @ 0.3 mg/kg” value is 4238.52 ng/mL. Besides, the “Invivo lipid degradability ng/g” value in series [2] was “BLOQ”. The same compound displayed a PDI in series [3] of 0.064. For the same compound, the pKa in series [4] stood at 6.84.
With `CN(C)CCCC(=O)OC(CCCCCC(=O)OC(COC(=O)CCC1CCCCC1)COC(=O)CCC1CCCCC1)CCCCCC(=O)OC(COC(=O)CCC1CCCCC1)COC(=O)CCC1CCCCC1` [Lipid 59, bis(1,3-bis((3-cyclohexylpropanoyl)oxy)propan-2-yl) 7-((4-(dimethylamino)butanoyl)oxy)tridecanedioate], in series [1], the “Size (nm)” value was 74.77 nm and the EE % is reported as 92.1%. In the series on hEPO, the “EPO expression in ng/mL @ 0.3 mg/kg” value was 14723.72 ng/mL. In addition, the “Invivo lipid degradability ng/g” value in series [2] is given as “BLOQ”. The compound further registered a PDI in series [3] of 0.068. Moreover, the pKa in series [4] amounted to 6.37.
In the case of `CCCCCCCC(=O)OCC(C)(COC(=O)CCCCCCC)COC(=O)CCCN(CCCC(=O)OCC(C)(COC(=O)CCCCCCC)COC(=O)CCCCCCC)C(=O)SCCCN(C)C` [Lipid 54], in series [1], the “Size (nm)” value was found to be 76.03 nm and the EE % is on record as 90.9%. Further, the “EPO expression in ng/mL @ 0.3 mg/kg” value in the series on hEPO was 25548.45 ng/mL. Besides, in series [2], the “Invivo lipid degradability ng/g” value is on record as “BLOQ”. In addition, the PDI in series [3] is 0.072. Also, the “FVII KD % @ 0.03 mg/kg” value in the series with factor VII is 86.88%. In addition, the pKa in series [4] was 7.3.
Turning to `CCCCCCC(C)(C)C(=O)OCC(COC(=O)CCCN(CCCC(=O)OCC(COC(=O)C(C)(C)CCCCCC)COC(=O)C(C)(C)CCCCCC)C(=O)SCCCN(C)C)COC(=O)C(C)(C)CCCCCC` [Lipid 55], in series [1], the “Size (nm)” value was found to be 71.78 nm and the EE % is reported as 93.0%. In addition, in the series with hEPO, the “EPO expression in ng/mL @ 0.3 mg/kg” value came out at 10312.89 ng/mL. The “Invivo lipid degradability ng/g” value in series [2] is reported as 63300 ng/g. The compound further showed a PDI in series [3] of 0.103. In the series on factor VII, the “FVII KD % @ 0.03 mg/kg” value worked out at 72.17%. Further, the pKa in series [4] was found to be 6.59.
For `CC1CCC(CCC(=O)OCC(C)(COC(=O)CCC2CCC(C)CC2)COC(=O)CCN(CCCCCN(C)C)CCC(=O)OCC(C)(COC(=O)CCC2CCC(C)CC2)COC(=O)CCC2CCC(C)CC2)CC1` (stereo not shown) [Lipid 50, (((3,3′-((5-(dimethylamino)pentyl)azanedivl)bis(propanovl))bis(oxy))bis(methylene))bis(2-methylpropane-2,1,3-triyl)tetrakis(3-(4-methylcyclohexyl) propanoate)], in series [1], the “Size (nm)” value is listed as 97.08 nm and the EE % came to 94.7%. Besides, the “EPO expression in ng/mL @ 0.3 mg/kg” value in the series on hEPO is 579.2 ng/mL. Also, the “Invivo lipid degradability ng/g” value in series [2] stood at 28100 ng/g. The compound further registered a PDI in series [3] of 0.13. The “FVII KD % @ 0.03 mg/kg” value in the series on factor VII came out at 93.5%. The pKa in series [4] amounted to 7.04.
For `CN(C)CCCSC(=O)N(CCCC(=O)OCC(COC(=O)CCC1CCCCC1)COC(=O)CCC1CCCCC1)CCCC(=O)OCC(COC(=O)CCC1CCCCC1)COC(=O)CCC1CCCCC1` [Lipid 52], in series [1], the “Size (nm)” value came to 77.62 nm and the EE % amounted to 90.8%. Further, the “EPO expression in ng/mL @ 0.3 mg/kg” value in the series with hEPO turned out to be 17888.62 ng/mL. Moreover, the “Invivo lipid degradability ng/g” value in series [2] is listed as “BLOQ”. The same compound gave a PDI in series [3] of 0.038. Also, in the series on factor VII, the “FVII KD % @ 0.03 mg/kg” value was found to be 69.66%. In series [4], this compound displayed a pKa of 7.2.
For `CN(C)CCCC(=O)OC(CCCC(=O)OCC(C)(COC(=O)CCC1CCCCC1)COC(=O)CCC1CCCCC1)CCCC(=O)OCC(C)(COC(=O)CCC1CCCCC1)COC(=O)CCC1CCCCC1` [Lipid 62, bis(3-((3-cyclohexylpropanoyl)oxy)-2-(((3-cyclohexylpropanoyl)oxy)methyl)-2-methylpropyl) 5-((4-(dimethylamino)butanoyl)oxy)nonanedioate], in series [1], the “Size (nm)” value was 72.43 nm and the EE % was 95.3%. Further, the “EPO expression in ng/mL @ 0.3 mg/kg” value with hEPO is on record as 2930.66 ng/mL. For the same compound, the “Invivo lipid degradability ng/g” value in series [2] turned out to be 6880 ng/g. For the same compound, in series [3], the PDI came out at 0.056. In series [4], the pKa is 6.64.
